Assay results: BindingDB's records for patent US12264155 (Repare Therapeutics, 2025)

Target: Serine/threonine-protein kinase ATR (Homo sapiens, UniProt Q13535)
Assay: ATR/ATRIP Enzymatic Assay
Description: Detection of ATR kinase activity utilized the AlphaScreen system to measure the phosphorylation of the substrate protein p53.

Serine/threonine-protein kinase ATR, sequence (Q13535 whole entry): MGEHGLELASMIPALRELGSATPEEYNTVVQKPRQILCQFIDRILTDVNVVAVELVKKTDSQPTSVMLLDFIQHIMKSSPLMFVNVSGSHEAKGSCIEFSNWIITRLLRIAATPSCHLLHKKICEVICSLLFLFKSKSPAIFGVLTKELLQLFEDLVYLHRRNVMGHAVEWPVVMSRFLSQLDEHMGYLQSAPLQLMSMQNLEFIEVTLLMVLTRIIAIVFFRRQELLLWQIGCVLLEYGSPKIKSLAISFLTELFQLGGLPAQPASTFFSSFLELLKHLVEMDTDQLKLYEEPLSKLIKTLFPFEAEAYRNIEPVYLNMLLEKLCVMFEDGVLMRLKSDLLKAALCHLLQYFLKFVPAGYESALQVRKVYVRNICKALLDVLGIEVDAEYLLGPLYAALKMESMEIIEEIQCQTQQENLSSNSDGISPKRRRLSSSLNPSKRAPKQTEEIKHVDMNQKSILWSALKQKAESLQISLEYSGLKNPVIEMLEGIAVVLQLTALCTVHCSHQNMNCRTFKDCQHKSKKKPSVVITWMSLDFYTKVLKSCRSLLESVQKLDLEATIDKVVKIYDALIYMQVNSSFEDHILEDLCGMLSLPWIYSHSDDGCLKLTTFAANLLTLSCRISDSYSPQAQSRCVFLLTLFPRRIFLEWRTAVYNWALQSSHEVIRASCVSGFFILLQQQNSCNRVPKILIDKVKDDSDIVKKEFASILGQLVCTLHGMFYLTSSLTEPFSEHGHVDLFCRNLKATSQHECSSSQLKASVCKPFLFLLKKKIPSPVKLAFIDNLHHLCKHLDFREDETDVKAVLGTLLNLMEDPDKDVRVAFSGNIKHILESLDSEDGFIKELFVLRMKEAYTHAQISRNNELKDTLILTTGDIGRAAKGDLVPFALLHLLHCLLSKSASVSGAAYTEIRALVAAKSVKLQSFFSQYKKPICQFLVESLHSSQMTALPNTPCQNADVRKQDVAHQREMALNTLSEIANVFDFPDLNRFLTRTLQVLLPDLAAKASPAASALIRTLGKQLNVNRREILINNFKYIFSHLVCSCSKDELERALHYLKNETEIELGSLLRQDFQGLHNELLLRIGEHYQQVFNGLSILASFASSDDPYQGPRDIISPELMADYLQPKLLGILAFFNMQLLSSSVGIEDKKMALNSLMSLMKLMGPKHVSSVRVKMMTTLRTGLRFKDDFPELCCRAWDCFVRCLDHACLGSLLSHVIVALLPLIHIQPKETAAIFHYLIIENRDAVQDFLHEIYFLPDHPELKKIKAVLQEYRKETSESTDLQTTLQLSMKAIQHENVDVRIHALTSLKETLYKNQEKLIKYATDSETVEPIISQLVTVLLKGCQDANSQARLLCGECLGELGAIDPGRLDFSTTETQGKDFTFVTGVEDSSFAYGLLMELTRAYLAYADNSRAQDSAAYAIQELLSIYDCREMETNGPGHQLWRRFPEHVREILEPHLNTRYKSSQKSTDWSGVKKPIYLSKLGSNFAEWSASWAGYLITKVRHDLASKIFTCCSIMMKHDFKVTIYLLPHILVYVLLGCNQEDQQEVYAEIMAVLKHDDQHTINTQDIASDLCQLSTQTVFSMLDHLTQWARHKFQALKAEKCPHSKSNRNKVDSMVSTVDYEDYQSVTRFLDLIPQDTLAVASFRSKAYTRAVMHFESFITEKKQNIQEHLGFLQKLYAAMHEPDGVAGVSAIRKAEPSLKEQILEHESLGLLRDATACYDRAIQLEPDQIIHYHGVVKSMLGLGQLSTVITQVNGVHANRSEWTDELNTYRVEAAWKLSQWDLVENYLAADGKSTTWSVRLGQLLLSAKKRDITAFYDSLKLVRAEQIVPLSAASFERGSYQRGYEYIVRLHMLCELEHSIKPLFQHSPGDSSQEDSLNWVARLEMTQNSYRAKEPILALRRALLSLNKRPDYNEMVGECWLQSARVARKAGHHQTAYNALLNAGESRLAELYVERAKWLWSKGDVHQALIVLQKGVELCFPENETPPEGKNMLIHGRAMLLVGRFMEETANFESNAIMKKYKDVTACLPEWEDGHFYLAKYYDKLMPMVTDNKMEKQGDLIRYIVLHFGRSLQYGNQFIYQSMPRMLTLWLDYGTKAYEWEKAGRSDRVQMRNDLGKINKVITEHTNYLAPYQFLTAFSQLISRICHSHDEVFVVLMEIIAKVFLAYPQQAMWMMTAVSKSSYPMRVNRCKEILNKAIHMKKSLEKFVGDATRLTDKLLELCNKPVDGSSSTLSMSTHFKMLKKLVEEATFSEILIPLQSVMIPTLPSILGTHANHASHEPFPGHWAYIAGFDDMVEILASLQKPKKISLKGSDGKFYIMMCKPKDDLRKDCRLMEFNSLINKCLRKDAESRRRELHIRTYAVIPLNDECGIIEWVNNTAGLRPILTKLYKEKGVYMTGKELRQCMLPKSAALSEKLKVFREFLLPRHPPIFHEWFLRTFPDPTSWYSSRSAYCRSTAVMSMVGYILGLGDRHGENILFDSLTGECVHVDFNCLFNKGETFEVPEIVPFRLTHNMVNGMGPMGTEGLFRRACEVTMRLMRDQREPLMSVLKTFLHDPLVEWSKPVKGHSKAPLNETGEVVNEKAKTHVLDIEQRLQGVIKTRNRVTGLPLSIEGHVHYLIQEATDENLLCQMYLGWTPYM

SMILES: C[C@@H]1COCCN1c1cc(N2CCOC2=O)c2ccn(-c3cc[nH]n3)c2n1 [US12264155, Compound 26]
- IC50: 860 nM

SMILES: C[C@@H]1COCCN1c1cc(OCC(F)(F)F)c2cnn(-c3cc[nH]n3)c2n1 [US12264155, Compound 55]
- IC50: 13 nM

SMILES: C[C@@H]1COCCN1c1cc(C2(O)CCC3(CCC3)CC2)c2cnn(-c3cc[nH]n3)c2n1 [US12264155, Compound 58]
- IC50: 6 nM

SMILES: C[C@@H]1COCCN1c1cc(C(C)(C)C#N)c2c(Br)nn(-c3cc[nH]n3)c2n1 [US12264155, Compound 70]
- IC50: < 5 nM
